The values that follow come from ChEMBL document CHEMBL3124929, “Novel S1P(1) receptor agonists--part 3: from thiophenes to pyridines” (J Med Chem, 2014).

Data set [1] in a line: Cmax in Wistar rat at 10 mg/kg, po by LC-MS/MS analysis. Format: ADME, organism-based. Set-up: dose 10 mg/kg, route oral. Particulars: in vivo.
The nature of data set [2]: AUC (0 to 24 hrs) in Wistar rat at 10 mg/kg, po by LC-MS/MS analysis. Format: ADME, organism-based. Set-up: time < 24 hr, dose 10 mg/kg, route oral. Conditions: plasma.
The nature of data set [3]: Volume of distribution at steady state in Wistar rat at 0.5 mg/kg, iv by LC-MS/MS analysis. Format: ADME, organism-based. Set-up: dose 0.5 mg/kg, route intravenous. Conditions: in vivo, read-out: Vdss.
Data set [4] is described as follows: Oral bioavailability in Wistar rat at 10 mg/kg by LC-MS/MS analysis. In kind it is ADME, organism-based. Conditions: in vivo.
A short description of data set [5]: Tmax in Wistar rat at 10 mg/kg, po by LC-MS/MS analysis. In kind it is ADME, organism-based. Set-up: dose 10 mg/kg, route oral. Conditions: in vivo.
Data set [6] in a line: AUC (0 to infinity) in Wistar rat at 0.5 mg/kg, iv by LC-MS/MS analysis. Conditions: plasma. In kind it is ADME, organism-based. Set-up: time infinity, dose 0.5 mg/kg, route intravenous.
Data set [7] in a line: Drug uptake in Wistar rat brain at 10 mg/kg, po after 2 hrs. Format: ADME, organism-based. Set-up: dose 10 mg/kg, route oral. Conditions: read-out: Drug uptake.
Data set [8] in a line: Plasma concentration in Wistar rat at 10 mg/kg, po after 6 hrs. Format: ADME, organism-based. Set-up: dose 10 mg/kg, route oral.
A short description of data set [9]: Plasma concentration in Wistar rat at 10 mg/kg, po after 2 hrs. Format: ADME, organism-based. Set-up: dose 10 mg/kg, route oral.
Data set [10] is described as follows: Drug uptake in Wistar rat brain at 10 mg/kg, po after 24 hrs. Format: ADME, organism-based. Set-up: dose 10 mg/kg, route oral. Conditions: read-out: Drug uptake.
Data set [11] in a line: Plasma concentration in Wistar rat at 10 mg/kg, po after 24 hrs. Format: ADME, organism-based. Set-up: dose 10 mg/kg, route oral.
Data set [12] is described as follows: Drug uptake in Wistar rat brain at 10 mg/kg, po after 6 hrs. In kind it is ADME, organism-based. Set-up: dose 10 mg/kg, route oral. Particulars: read-out: Drug uptake.
Data set [13] can be described thus: Tmax in Wistar rat at 1 mg/kg, po by LC-MS/MS analysis. Set-up: dose 1 mg/kg, route oral. In kind it is ADME, organism-based. Particulars: in vivo.
Data set [14] is described as follows: Cmax in Wistar rat at 1 mg/kg, po by LC-MS/MS analysis. Set-up: dose 1 mg/kg, route oral. Particulars: in vivo. In kind it is ADME, organism-based.
A short description of data set [15]: Oral bioavailability in Wistar rat at 1 mg/kg by LC-MS/MS analysis. In kind it is ADME, organism-based. Particulars: in vivo.
The nature of data set [16]: AUC (0 to 24 hrs) in Wistar rat at 1 mg/kg, po by LC-MS/MS analysis. In kind it is ADME, organism-based. Set-up: time < 24 hr, dose 1 mg/kg, route oral. Conditions: plasma.
A short description of data set [17]: AUC (0 to infinity) in Wistar rat at 1 mg/kg, iv by LC-MS/MS analysis. Set-up: time infinity, dose 1 mg/kg, route intravenous. In kind it is ADME, organism-based. Particulars: plasma.
Data set [18] in a line: Oral bioavailability in Beagle dog at 3 mg/kg by LC-MS/MS analysis. Format: ADME, organism-based, Canis lupus familiaris. Particulars: in vivo.
Data set [19] is described as follows: Oral bioavailability in cynomolgus monkey at 1 mg/kg by LC-MS/MS analysis. In kind it is ADME, organism-based, Macaca fascicularis. Particulars: in vivo.
A short description of data set [20]: Tmax in Wistar rat brain at 10 mg/kg, po. In kind it is ADME, organism-based. Set-up: dose 10 mg/kg, route oral.
Data set [21] is described as follows: AUC (0 to infinity) in cynomolgus monkey at 1 mg/kg, iv by LC-MS/MS analysis. In kind it is ADME, organism-based, Macaca fascicularis. Set-up: time infinity, dose 1 mg/kg, route intravenous. Particulars: plasma.
A short description of data set [22]: Cmax in Beagle dog at 3 mg/kg, po by LC-MS/MS analysis. Conditions: in vivo. Format: ADME, organism-based, Canis lupus familiaris. Set-up: dose 3 mg/kg, route oral.
Data set [23] can be described thus: Tmax in Wistar rat plasma at 10 mg/kg, po. Set-up: dose 10 mg/kg, route oral. Format: ADME, organism-based.
Data set [24] is described as follows: Tmax in Beagle dog at 3 mg/kg, po by LC-MS/MS analysis. In kind it is ADME, organism-based, Canis lupus familiaris. Set-up: dose 3 mg/kg, route oral. Particulars: in vivo.
The nature of data set [25]: AUC (0 to 24 hrs) in cynomolgus monkey at 1 mg/kg, po by LC-MS/MS analysis. Set-up: time < 24 hr, dose 1 mg/kg, route oral. In kind it is ADME, organism-based, Macaca fascicularis. Particulars: plasma.
A short description of data set [26]: Volume of distribution at steady state in Wistar rat at 1 mg/kg, iv by LC-MS/MS analysis. Format: ADME, organism-based. Set-up: dose 1 mg/kg, route intravenous. Particulars: in vivo, read-out: Vdss.
Data set [27] in a line: AUC (0 to 32 hrs) in Wistar rat at 10 mg/kg, po by LC-MS/MS analysis. Format: ADME, organism-based. Set-up: time < 32 hr, dose 10 mg/kg, route oral. Conditions: plasma.
Data set [28] can be described thus: AUC (0 to infinity) in Beagle dog at 1 mg/kg, iv by LC-MS/MS analysis. Particulars: plasma. In kind it is ADME, organism-based, Canis lupus familiaris. Set-up: time infinity, dose 1 mg/kg, route intravenous.
Data set [29] is described as follows: Tmax in cynomolgus monkey at 1 mg/kg, po by LC-MS/MS analysis. Set-up: dose 1 mg/kg, route oral. Conditions: in vivo. Format: ADME, organism-based, Macaca fascicularis.
Data set [30] in a line: Volume of distribution at steady state in Beagle dog at 1 mg/kg, iv by LC-MS/MS analysis. Format: ADME, organism-based, Canis lupus familiaris. Set-up: dose 1 mg/kg, route intravenous. Particulars: in vivo, read-out: Vdss.
Data set [31] can be described thus: Cmax in cynomolgus monkey at 1 mg/kg, po by LC-MS/MS analysis. Particulars: in vivo. Set-up: dose 1 mg/kg, route oral. In kind it is ADME, organism-based, Macaca fascicularis.
Data set [32] can be described thus: AUC (0 to 24 hrs) in Beagle dog at 3 mg/kg, po by LC-MS/MS analysis. Format: ADME, organism-based, Canis lupus familiaris. Set-up: time < 24 hr, dose 3 mg/kg, route oral. Conditions: plasma.
Data set [33] can be described thus: Volume of distribution at steady state in cynomolgus monkey at 1 mg/kg, iv by LC-MS/MS analysis. Format: ADME, organism-based, Macaca fascicularis. Particulars: in vivo, read-out: Vdss. Set-up: dose 1 mg/kg, route intravenous.
A short description of data set [34]: Plasma concentration in Wistar rat at 10 mg/kg, po after 3 hrs. In kind it is ADME, organism-based. Set-up: dose 10 mg/kg, route oral.

Consider `CCc1cc(-c2noc(-c3cc(C)nc(C(CC)CC)c3)n2)cc(C)c1OC[C@@H](O)CNC(=O)CO`, for which the Cmax in [1] amounted to 804 ng/mL. The same compound displayed an AUC(0-t) at 24 h in [2] of 1760 ng·h/mL. Moreover, the Vd in data set [3] was found to be 3.4 L/kg. Moreover, the bioavailability in [4] was 126%. For the same compound, the Tmax in data set [5] was 0.5 h. Further, the AUC(0-inf) in [6] stood at 69.9 ng·h/mL.

As for `CCc1cc(-c2noc(-c3cc(C)nc(N(CC)CC)c3)n2)cc(C)c1OC[C@@H](O)CO`, the concentration at 2 h was 435 ng/mL in data set [7] and 608 ng/mL in [9]. Also, the concentration at 6 h in data set [8] stood at 254 ng/mL; in data set [12] it was 271 ng/mL. In addition, the concentration at 24 h amounted to 34 ng/mL in data set [10] and 22 ng/mL in [11].

Turning to `CCc1cc(-c2nnc(-c3cc(C)nc(N(CC)CC)c3)o2)cc(C)c1OC[C@@H](O)CO`, the values for the concentration at 2 h in data set [7] and in data set [9] were 600 ng/mL and 820 ng/mL, respectively. The values for the concentration at 6 h in data set [8] and in data set [12] were 315 ng/mL and 215 ng/mL, respectively. The results for the concentration at 24 h in data set [10] and in data set [11] were 2 ng/mL and 4 ng/mL, respectively.

`CCc1cc(-c2noc(-c3cc(C)nc(C4CCCC4)c3)n2)cc(C)c1OC[C@@H](O)CNC(=O)CO`: the Tmax in [13] turned out to be 3 h. The compound further gave a Cmax in [14] of 49 ng/mL. The bioavailability in data set [15] came to 39%. The Vd in data set [3] is 7.3 L/kg. In addition, the AUC(0-t) at 24 h in data set [16] worked out at 436 ng·h/mL. This compound came in with an AUC(0-inf) in data set [6] of 566 ng·h/mL.

As for `CCc1cc(-c2noc(-c3cc(C)nc(N(CC)CC)c3)n2)cc(C)c1OC[C@@H](O)CNC(=O)CO`, the AUC(0-inf) in [17] was determined as 3200 ng·h/mL; in data set [21], 5450 ng·h/mL; in [28], 3350 ng·h/mL. Also, the Cmax in data set [1] turned out to be 1090 ng/mL; in data set [22], 546 ng/mL; in data set [31], 97 ng/mL. Moreover, the values for the concentration at 2 h in [7] and in [9] were 269 ng/mL and 2170 ng/mL, respectively. The bioavailability in data set [18] amounted to 32%; in [19] it was 16%; in data set [4], 52%. Also, the Tmax came out at 6 h in [20]; 2 h in data set [23]; 1 h in data set [24]; 2 h in [5]; 2 h in data set [29]. The concentration at 6 h was found to be 1780 ng/mL in data set [8] and 653 ng/mL in data set [12]. Further, the figures for the AUC(0-t) at 24 h in [25] and in [32] were 866 ng·h/mL and 3250 ng·h/mL, respectively. The Vd in data set [26] was found to be 3.5 L/kg; in data set [30] it was 1.2 L/kg; in data set [33] it was 1.1 L/kg. In [27], this compound returned an AUC(0-t) at 32 h of 16500 ng·h/mL. Also, the concentration at 24 h stood at 487 ng/mL in [10] and 412 ng/mL in [11].

Consider `CCc1cc(-c2nc(-c3cc(C)nc(N(CC)CC)c3)no2)cc(C)c1OC[C@@H](O)CNC(=O)CO`, for which the concentration at 2 h in data set [7] amounted to 140 ng/mL; in data set [9] it was 875 ng/mL. Also, the concentration at 6 h amounted to 918 ng/mL in [8] and 369 ng/mL in data set [12]. Further, the results for the concentration at 24 h in data set [10] and in [11] were 301 ng/mL and 230 ng/mL, respectively.

As to `CCc1cc(-c2nnc(-c3cc(C)nc(N(CC)CC)c3)o2)cc(C)c1OC[C@@H](O)CNC(=O)CO`, the concentration at 2 h in [7] came to 46 ng/mL; in data set [9], 815 ng/mL. The concentration at 6 h in data set [8] came to 510 ng/mL; in [12], 52 ng/mL. Besides, the concentration at 24 h was found to be 3 ng/mL in [10] and 8 ng/mL in [11].

Regarding `CCc1cc(-c2noc(-c3cc(C4CCCC4)cc(C)n3)n2)cc(C)c1OC[C@@H](O)CNC(=O)CO`, the concentration at 6 h in data set [8] came out at 1070 nM. Also, the concentration at 3 h in [34] turned out to be 1890 nM. In data set [11], this compound returned a concentration at 24 h of 9 nM.

As for `CCc1cc(-c2noc(-c3cc(C)c(C4CCCC4)cn3)n2)cc(C)c1OC[C@@H](O)CNC(=O)CO`, in [8], the concentration at 6 h is 3690 nM. This compound also displayed a concentration at 3 h in [34] of 4910 nM. Further, in [11], the concentration at 24 h amounted to 800 nM.
